From PubChem BioAssay AID248 (DTP/NCI, 2004)
Where “and” joins values, the source holds several entries; their conditions need not be identical. Equal values may be shown once. Toxic doses and inconclusive results are not listed. Rule as the data show it: active = T/C of 150% or more; inactive = T/C below 125%.

Test system: L1210 leukemia ip in BDF1 mice, survival T/C
Test: NCI In Vivo Anticancer Drug Screen. Data for tumor model L1210 Leukemia (intraperitoneal) in B6D2F1 (BDF1) mice
Details: endpoint: mean survival time, higher = longer survival
Summary of the method: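 Value reflects the ratio of survival in compound-treated mice to survival in vehicle-treated controls, with both groups carrying the same transplanted tumor.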

[1] = dose: 100.0 mg/kg/injection, schedule: Q01DX001 (ip), vehicle: Klucel (hydroxypropylcellulose) (HPC)
[2] = dose: 100.0 mg/kg/injection, schedule: Q01DX009 (ip), vehicle: Klucel (hydroxypropylcellulose) (HPC)
[3] = dose: 200.0 mg/kg/injection, schedule: Q01DX001 (ip), vehicle: Klucel (hydroxypropylcellulose) (HPC)
[4] = dose: 200.0 mg/kg/injection, schedule: Q01DX009 (ip), vehicle: Klucel (hydroxypropylcellulose) (HPC)
[5] = dose: 400.0 mg/kg/injection, schedule: Q01DX001 (ip), vehicle: Klucel (hydroxypropylcellulose) (HPC)
[6] = dose: 100.0 mg/kg/injection, schedule: Q01DX001 (ip), vehicle: saline with Tween-80
[7] = dose: 200.0 mg/kg/injection, schedule: Q01DX001 (ip), vehicle: saline with Tween-80
[8] = dose: 400.0 mg/kg/injection, schedule: Q01DX009 (ip), vehicle: Klucel (hydroxypropylcellulose) (HPC)
[9] = dose: 100.0 mg/kg/injection, schedule: Q01DX009 (ip), vehicle: saline with Tween-80
[10] = dose: 100.0 mg/kg/injection, schedule: Q04DX003 (ip), vehicle: other
[11] = dose: 200.0 mg/kg/injection, schedule: Q01DX009 (ip), vehicle: saline with Tween-80
[12] = dose: 200.0 mg/kg/injection, schedule: Q04DX003 (ip), vehicle: other
[13] = dose: 400.0 mg/kg/injection, schedule: Q04DX003 (ip), vehicle: other
[14] = dose: 100.0 mg/kg/injection, schedule: Q04DX003 (ip), vehicle: saline with Tween-80
[15] = dose: 200.0 mg/kg/injection, schedule: Q04DX003 (ip), vehicle: saline with Tween-80
[16] = dose: 400.0 mg/kg/injection, schedule: Q04DX003 (ip), vehicle: saline with Tween-80
[17] = dose: 50.0 mg/kg/injection, schedule: Q01DX009 (ip), vehicle: saline with Tween-80
[18] = dose: 100.0 mg/kg/injection, schedule: Q04DX003 (ip), vehicle: Klucel (hydroxypropylcellulose) (HPC)
[19] = dose: 200.0 mg/kg/injection, schedule: Q04DX003 (ip), vehicle: Klucel (hydroxypropylcellulose) (HPC)
[20] = dose: 400.0 mg/kg/injection, schedule: Q04DX003 (ip), vehicle: Klucel (hydroxypropylcellulose) (HPC)

Measured: T/C

Clc1[nH]nc2ccccc12
inactive: dose: 25.0 mg/kg/injection, schedule: Q01DX009 (ip), vehicle: saline sonified 101 % of control | dose: 50.0 mg/kg/injection, schedule: Q01DX009 (ip), vehicle: saline sonified 93 % of control | dose: 100.0 mg/kg/injection, schedule: Q01DX001 (ip), vehicle: saline sonified 91 % of control | dose: 100.0 mg/kg/injection, schedule: Q01DX009 (ip), vehicle: saline sonified 97 % of control

O=[N+]([O-])c1cc(Br)c(Br)cc1Br
inactive: [1] 106 % of control | [2] 97 % of control | [3] 101 % of control | [4] 96 % of control | [5] 101 % of control

O=C(CI)Nc1ccc2oc(=O)c(C(=O)O)cc2c1
inactive: dose: 20.0 mg/kg/injection, schedule: Q01DX001 (ip), vehicle: Klucel (hydroxypropylcellulose) (HPC) 100 % of control | dose: 40.0 mg/kg/injection, schedule: Q01DX001 (ip), vehicle: Klucel (hydroxypropylcellulose) (HPC) 108 % of control | dose: 80.0 mg/kg/injection, schedule: Q01DX001 (ip), vehicle: Klucel (hydroxypropylcellulose) (HPC) 107 % of control | [1] 97 % of control

CCOC(=O)C1C(=O)CC2c3nc4ccccc4cc3CN2C1=O (stereo not drawn)
inactive: dose: 75.0 mg/kg/injection, schedule: Q01DX001 (ip), vehicle: saline 97 % of control | dose: 150.0 mg/kg/injection, schedule: Q01DX001 (ip), vehicle: saline 114 % of control

CSc1nc(N)cc(OCc2ccccc2)n1
inactive: dose: 50.0 mg/kg/injection, schedule: Q01DX001 (ip), vehicle: saline with Tween-80 100 % of control | [6] 97 % of control | [7] 92 % of control

COc1ccc(OC(=O)Nc2cccc(Cl)c2)cc1
inactive: [2] 94 % of control | [4] 100 % of control | [8] 100 % of control

COC(=O)c1nc(N)n[nH]1
inactive: dose: 100.0 mg/kg/injection, schedule: Q01DX001 (ip), vehicle: other 110 % of control | [9] 106 % of control | [10] 102 % of control | dose: 200.0 mg/kg/injection, schedule: Q01DX001 (ip), vehicle: other 95 % of control | [11] 94 % of control | [12] 105 % of control | dose: 400.0 mg/kg/injection, schedule: Q01DX001 (ip), vehicle: other 97 % of control | dose: 400.0 mg/kg/injection, schedule: Q01DX009 (ip), vehicle: saline with Tween-80 95 % of control | [13] 102 % of control

c1ccc(N2CC2)cc1
inactive: [1] 105 % of control | [3] 100 % of control | [5] 96 % of control

O=S(=O)([O-])NC1CCCCC1.O=S(=O)([O-])NC1CCCCC1.[Hg+2].[Hg+2].[Hg+2].[O-2].[O-2]
inactive: dose: 0.5 mg/kg/injection, schedule: Q01DX009 (ip), vehicle: saline with Tween-80 100 % of control | dose: 0.5 mg/kg/injection, schedule: Q04DX003 (ip), vehicle: saline sonified 97 % of control | dose: 1.0 mg/kg/injection, schedule: Q01DX009 (ip), vehicle: saline with Tween-80 94 % of control | dose: 1.0 mg/kg/injection, schedule: Q04DX003 (ip), vehicle: saline sonified 101 % of control | dose: 2.0 mg/kg/injection, schedule: Q01DX009 (ip), vehicle: saline with Tween-80 96 % of control | dose: 2.0 mg/kg/injection, schedule: Q04DX003 (ip), vehicle: saline sonified 94 % of control | dose: 4.0 mg/kg/injection, schedule: Q01DX009 (ip), vehicle: saline with Tween-80 93 % of control

c1ccc(N/N=C(\Sc2ccccc2)c2ccccc2)cc1
inactive: [14] 113 % of control | [15] 102 % of control | [16] 94 % of control

CCN(CC)CCCC(C)NC(=O)c1ccc(Cl)nc1 (stereo not drawn)
inactive: [17] 105 % of control | [9] 103 % of control | [11] 95 % of control

COC1c2c(nc3ccccc3c2C(=O)O)-c2ccccc2C1(C)C (stereo not drawn)
inactive: [18] 104 % of control | [19] 104 % of control | [20] 106 % of control

CCCCCCCCCCCCNC1=C(Cl)C(=O)c2ccccc2C1=O
inactive: dose: 1.0 mg/kg/injection, schedule: Q01DX Z (ip), vehicle: methylcellulose (MC) 94 % of control | dose: 2.2 mg/kg/injection, schedule: Q01DX Z (ip), vehicle: methylcellulose (MC) 89 % of control

O=C1CCC(N2C(=O)C3C4C=CC(C4)C3C2=O)C(=O)N1 (stereo not drawn)
inactive: dose: 100.0 mg/kg/injection, schedule: Q04DX003 (ip), vehicle: saline 101 % of control | dose: 200.0 mg/kg/injection, schedule: Q04DX003 (ip), vehicle: saline 101 % of control | dose: 400.0 mg/kg/injection, schedule: Q04DX003 (ip), vehicle: saline 97 % of control

Cc1ccc(O)cn1
inactive: [14] 100 % of control | [15] 96 % of control | [16] 103 % of control

FC(F)(F)c1nc2nc(Br)c(Br)nc2[nH]1
inactive: [17] 108 % of control | [9] 89 % of control | [14] 109 % of control and 110 % of control and 111 % of control | [11] 98 % of control | [15] 102 % of control and 115 % of control

Cc1cccc2c(N=Nc3ccccc3[N+](=O)[O-])c(O)[nH]c12
inactive: dose: 100.0 mg/kg/injection, schedule: Q01DX001 (ip), vehicle: saline 101 % of control | dose: 400.0 mg/kg/injection, schedule: Q01DX001 (ip), vehicle: saline 97 % of control

CC(C)NC(=O)OC(C)C
inactive: [18] 96 % of control | [19] 104 % of control | [20] 98 % of control

COC(=O)C1CC(=O)C(C(=O)OC)CC1=O (stereo not drawn)
inactive: [2] 89 % of control | [4] 92 % of control | [8] 89 % of control

CCC1=NS(=O)(=O)c2c(ncn2C)N1
inactive: [10] 97 % of control | [12] 97 % of control | [13] 103 % of control

CC1=CCc2c(NS(=O)(=O)N(C)C)ccc(NS(=O)(=O)N(C)C)c2C1
inactive: [1] 101 % of control | [18] 94 % of control | [3] 97 % of control | [19] 93 % of control | [5] 97 % of control | [20] 91 % of control

COc1cc([N+](=O)[O-])ccc1NC(=O)C(Br)C(Br)c1ccccc1 (stereo not drawn)
inactive: dose: 100.0 mg/kg/injection, schedule: Q01DX009 (ip), vehicle: other 110 % of control | dose: 200.0 mg/kg/injection, schedule: Q01DX009 (ip), vehicle: other 96 % of control | dose: 400.0 mg/kg/injection, schedule: Q01DX009 (ip), vehicle: other 88 % of control

CC(=O)Nc1ccc(CC(=O)O)cc1
inactive: [6] 96 % of control | [7] 93 % of control | dose: 400.0 mg/kg/injection, schedule: Q01DX001 (ip), vehicle: saline with Tween-80 100 % of control

O=Cc1cc([N+](=O)[O-])cc(CCl)c1O
inactive: [2] 90 % of control

CC1OC(=O)C(C2OC2C)=CC1O (stereo not drawn)
inactive: dose: 12.5 mg/kg/injection, schedule: Q01DX009 (ip), vehicle: saline 97 % of control | dose: 12.5 mg/kg/injection, schedule: Q04DX003 (ip), vehicle: saline 101 % of control | dose: 25.0 mg/kg/injection, schedule: Q01DX009 (ip), vehicle: saline 108 % of control | dose: 25.0 mg/kg/injection, schedule: Q04DX003 (ip), vehicle: saline 108 % of control | dose: 50.0 mg/kg/injection, schedule: Q01DX001 (ip), vehicle: saline 114 % of control | dose: 50.0 mg/kg/injection, schedule: Q04DX003 (ip), vehicle: saline 92 % of control

COc1ccc(NC(=O)Nc2cccc(C)c2C)cc1
inactive: dose: 100.0 mg/kg/injection, schedule: Q01DX009 (ip), vehicle: gum acacia 96 % of control | dose: 100.0 mg/kg/injection, schedule: Q04DX003 (ip), vehicle: gum acacia 99 % of control | dose: 200.0 mg/kg/injection, schedule: Q01DX009 (ip), vehicle: gum acacia 97 % of control | dose: 200.0 mg/kg/injection, schedule: Q04DX003 (ip), vehicle: gum acacia 91 % of control | dose: 400.0 mg/kg/injection, schedule: Q01DX009 (ip), vehicle: gum acacia 94 % of control | dose: 400.0 mg/kg/injection, schedule: Q04DX003 (ip), vehicle: gum acacia 89 % of control
